Target: T1, Human CaV2.2 channels (Homo sapiens, UniProt Q00975)
T1 construct: expressed in transfected cells
Assay: Fluorescent assay for CaV2.2 channels using potassium depolarization to induce channel opening (FLIPR, Fluo-4)
Assay type: cell-based
Conditions: 3 μM test compound, 30 mM KCl, HEK293 cells stably expressing human CaV2.2; read-out: %-Inhib (CaV2.2) @3 μM @30 mM KCl
From the text: In the process, the Ca^2+ influx is quantified in the FLIPR assay with the aid of a Ca^2+-sensitive dye (type Fluo-4, Molecular Probes Europe BV, Leiden, the Netherlands) in a fluorescent imaging plate reader (FLIPR 3, Molecular Devices, Sunnyvale, USA), as described hereinafter.
2.1 Fluorescent Assay for CaV2.2 Channels Using Potassium Depolarization to Induce Channel Opening
Human CaV2.2 channels were stably expressed in HEK293 cells together with alpha2-delta and beta subunits of voltage gated calcium channels. In addition, an inwardly rectifying potassium channel (Kir2.3) was stably expressed in these cells to augment control of the cell membrane potential by the concentration of extracellular potassium ions. Raise of the extracellular potassium concentration leads to depolarization of the membrane potential and thus regulates the voltage dependent state of CaV2.2 channels. For preparation, cells were seeded in black poly-D-lysine coated 96-well plates (Becton Dickinson, Biocoat 4640) in 100 μl medium [500 ml DMEM/F-12 plus Glutamax (Invitrogen 31331-093) plus 5.5 ml MEM NEAA 100× (Invitrogen 11140-035) plus 50 ml FBS decomplemented (Invitrogen 10270-106) plus 4.4 ml Geneticin (Invitrogen 10131-027) plus 1.1 ml Hygromycin B (Invitrogen 10687-010) plus 68.75 μl Puromycin (Clontech, 631306)] at a cell density of 45.000 cells per well.
Plates were incubated at 37° C. (5% CO2) for 20 to 23 hours. On the day of experiment medium was discarded and cells were loaded with Fluo 4 by addition of 100 μl of basic assay buffer (10 mM HEPES, 30 mM KCl, 120 mM NaCl, 0.8 mM CaCl2, 1.7 mM MgCl2, 10 mM Glucose, 0.1% BSA. pH 7.4) containing 2 μM Fluo 4 (Molecular Probes; F-14201), 0.01% pluronic acid (Molecular Probes; P-6866) and 2.5 mM probenecid (Molecular Probes; P36400). Cells were incubated in the dark at 25° C. for 60 min. Then the dye containing buffer was discarded and 100 μl basic assay buffer was added. Subsequently cells were incubated in the dark at 25° C. for 15 min. 25 μl of basic assay buffer with or without test compound were added and cells were incubated again in the dark at 25° C. for 15 min. Fluorescence intensity was measured on a FLIPR 3 instrument (Molecular Devices Corp., Sunnyvale, Calif.) with excitation at 480 nm and emission at 535 nm. After continuously reading fluorescence for 30 sec, 50 μl of basic assay buffer containing 210 mM KCl (NaCl omitted) were added for depolarization. Peak fluorescent signal intensity was determined and the amplitude of the peak signal, normalized to base line, was used to measure channel inhibition by test compounds.

T1 sequence (Q00975 whole entry): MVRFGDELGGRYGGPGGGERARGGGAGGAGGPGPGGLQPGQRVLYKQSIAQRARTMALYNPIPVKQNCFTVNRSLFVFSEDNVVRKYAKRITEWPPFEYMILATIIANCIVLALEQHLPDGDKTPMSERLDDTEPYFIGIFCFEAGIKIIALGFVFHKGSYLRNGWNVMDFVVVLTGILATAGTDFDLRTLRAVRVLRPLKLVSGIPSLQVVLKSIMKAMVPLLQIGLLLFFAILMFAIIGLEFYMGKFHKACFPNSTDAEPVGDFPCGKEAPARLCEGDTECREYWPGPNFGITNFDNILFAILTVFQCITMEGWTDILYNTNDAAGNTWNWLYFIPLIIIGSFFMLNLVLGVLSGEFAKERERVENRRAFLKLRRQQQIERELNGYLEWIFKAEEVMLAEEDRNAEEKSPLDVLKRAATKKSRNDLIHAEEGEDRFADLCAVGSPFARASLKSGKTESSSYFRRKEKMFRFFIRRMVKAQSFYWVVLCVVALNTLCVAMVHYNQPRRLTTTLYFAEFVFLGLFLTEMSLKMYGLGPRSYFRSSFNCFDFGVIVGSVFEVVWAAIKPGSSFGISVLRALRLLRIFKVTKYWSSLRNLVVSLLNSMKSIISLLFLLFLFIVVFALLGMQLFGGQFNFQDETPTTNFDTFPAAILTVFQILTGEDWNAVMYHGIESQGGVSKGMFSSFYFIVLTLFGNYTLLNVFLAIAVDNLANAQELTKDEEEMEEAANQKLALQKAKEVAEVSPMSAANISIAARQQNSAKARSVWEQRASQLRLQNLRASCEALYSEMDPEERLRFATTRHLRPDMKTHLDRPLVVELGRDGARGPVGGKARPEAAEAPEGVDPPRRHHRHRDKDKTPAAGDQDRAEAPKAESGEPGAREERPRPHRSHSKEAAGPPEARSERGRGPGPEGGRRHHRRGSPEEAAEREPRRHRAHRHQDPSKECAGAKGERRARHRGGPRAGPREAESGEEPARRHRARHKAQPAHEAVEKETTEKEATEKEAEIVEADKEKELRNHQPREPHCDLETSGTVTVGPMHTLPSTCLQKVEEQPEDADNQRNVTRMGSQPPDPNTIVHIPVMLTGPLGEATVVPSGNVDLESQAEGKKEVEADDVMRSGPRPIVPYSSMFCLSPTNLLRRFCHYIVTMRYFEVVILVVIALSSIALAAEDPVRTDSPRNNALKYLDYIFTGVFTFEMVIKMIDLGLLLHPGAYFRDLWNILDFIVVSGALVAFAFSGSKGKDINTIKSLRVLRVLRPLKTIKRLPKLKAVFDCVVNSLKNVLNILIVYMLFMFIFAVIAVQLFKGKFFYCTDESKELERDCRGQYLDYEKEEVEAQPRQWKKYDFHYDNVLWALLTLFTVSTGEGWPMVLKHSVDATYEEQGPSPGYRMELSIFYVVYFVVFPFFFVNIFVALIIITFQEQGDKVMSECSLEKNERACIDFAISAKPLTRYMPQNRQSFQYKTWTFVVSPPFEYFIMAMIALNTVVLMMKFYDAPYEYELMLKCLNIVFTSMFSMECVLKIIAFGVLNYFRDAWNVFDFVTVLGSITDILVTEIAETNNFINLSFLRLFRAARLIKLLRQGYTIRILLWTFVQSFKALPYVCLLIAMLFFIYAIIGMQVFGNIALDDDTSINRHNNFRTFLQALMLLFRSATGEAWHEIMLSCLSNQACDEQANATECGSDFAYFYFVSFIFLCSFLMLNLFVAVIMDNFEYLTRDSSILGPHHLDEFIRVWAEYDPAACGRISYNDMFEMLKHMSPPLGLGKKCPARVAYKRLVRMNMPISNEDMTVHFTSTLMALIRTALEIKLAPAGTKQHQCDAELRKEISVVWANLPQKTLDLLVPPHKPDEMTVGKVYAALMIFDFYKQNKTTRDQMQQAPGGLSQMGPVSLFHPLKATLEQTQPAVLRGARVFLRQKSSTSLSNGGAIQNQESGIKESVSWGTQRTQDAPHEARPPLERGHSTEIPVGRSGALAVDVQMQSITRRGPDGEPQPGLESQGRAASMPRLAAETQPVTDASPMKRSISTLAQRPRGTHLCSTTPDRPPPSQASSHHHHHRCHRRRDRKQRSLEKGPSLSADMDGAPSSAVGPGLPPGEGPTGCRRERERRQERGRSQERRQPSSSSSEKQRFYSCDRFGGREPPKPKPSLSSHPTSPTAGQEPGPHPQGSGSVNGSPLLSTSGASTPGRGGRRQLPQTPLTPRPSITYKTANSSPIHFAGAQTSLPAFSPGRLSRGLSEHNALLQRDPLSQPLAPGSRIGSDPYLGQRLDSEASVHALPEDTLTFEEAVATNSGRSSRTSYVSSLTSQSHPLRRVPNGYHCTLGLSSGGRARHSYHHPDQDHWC
T1 sequence (P54289 25-1103, further chain): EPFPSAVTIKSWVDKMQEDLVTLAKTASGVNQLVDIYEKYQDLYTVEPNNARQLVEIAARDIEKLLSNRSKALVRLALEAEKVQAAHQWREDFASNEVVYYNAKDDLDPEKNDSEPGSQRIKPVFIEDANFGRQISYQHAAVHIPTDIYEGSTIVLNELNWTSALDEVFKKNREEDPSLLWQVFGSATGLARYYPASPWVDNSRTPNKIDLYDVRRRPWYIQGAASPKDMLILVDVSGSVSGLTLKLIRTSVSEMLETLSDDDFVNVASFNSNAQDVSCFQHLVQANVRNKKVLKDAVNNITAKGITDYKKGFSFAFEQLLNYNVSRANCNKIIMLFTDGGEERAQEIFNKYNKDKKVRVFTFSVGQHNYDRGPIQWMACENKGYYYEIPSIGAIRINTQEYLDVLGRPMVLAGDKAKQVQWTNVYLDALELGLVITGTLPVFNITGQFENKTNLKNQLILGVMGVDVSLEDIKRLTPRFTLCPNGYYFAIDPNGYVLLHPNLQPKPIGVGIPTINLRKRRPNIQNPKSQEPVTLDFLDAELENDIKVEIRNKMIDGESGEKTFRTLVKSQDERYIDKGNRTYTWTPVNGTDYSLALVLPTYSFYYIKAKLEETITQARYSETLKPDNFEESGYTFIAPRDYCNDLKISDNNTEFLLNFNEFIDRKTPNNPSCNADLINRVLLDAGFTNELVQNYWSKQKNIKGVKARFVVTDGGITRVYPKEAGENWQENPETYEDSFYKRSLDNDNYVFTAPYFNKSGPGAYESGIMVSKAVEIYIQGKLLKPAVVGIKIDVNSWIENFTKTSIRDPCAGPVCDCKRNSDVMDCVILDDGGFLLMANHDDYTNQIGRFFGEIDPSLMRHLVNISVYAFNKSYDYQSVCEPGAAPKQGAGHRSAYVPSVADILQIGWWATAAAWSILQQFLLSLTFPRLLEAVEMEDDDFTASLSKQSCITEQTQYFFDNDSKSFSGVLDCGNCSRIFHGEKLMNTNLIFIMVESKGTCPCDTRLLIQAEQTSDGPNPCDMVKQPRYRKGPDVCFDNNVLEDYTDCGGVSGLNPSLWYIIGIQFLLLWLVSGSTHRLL
T1 sequence (P54284 whole entry, further chain): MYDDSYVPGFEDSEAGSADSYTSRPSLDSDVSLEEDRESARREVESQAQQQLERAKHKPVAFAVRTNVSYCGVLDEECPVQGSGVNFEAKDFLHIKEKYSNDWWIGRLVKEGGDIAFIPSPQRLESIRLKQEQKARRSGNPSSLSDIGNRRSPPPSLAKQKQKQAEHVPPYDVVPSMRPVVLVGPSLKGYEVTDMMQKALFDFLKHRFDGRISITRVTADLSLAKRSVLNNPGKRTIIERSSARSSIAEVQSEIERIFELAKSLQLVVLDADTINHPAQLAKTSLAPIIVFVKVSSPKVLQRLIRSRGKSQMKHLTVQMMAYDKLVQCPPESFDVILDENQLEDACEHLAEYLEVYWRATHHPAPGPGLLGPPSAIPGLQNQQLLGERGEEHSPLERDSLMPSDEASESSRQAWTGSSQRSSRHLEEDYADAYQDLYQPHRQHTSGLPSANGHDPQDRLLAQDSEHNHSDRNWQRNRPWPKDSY

Structure (SMILES)	inhibition at 3 µM [%]
Cc1c(-c2ccc(Cl)cc2)c(C(=O)N(C)C2CCS(=O)(=O)CC2)n(Cc2ccccc2)c1C(F)(F)F [SC-131, 1-Benzyl-3-(4-chlorophenyl)-N-(1,1-dioxo-thian-4-yl)-N,4-dimethyl-5-(trifluoromethyl)-1H-pyrrole-2-carboxylic acid amide]	> 95
Cc1c(-c2ccc(Cl)cc2)c(C(=O)N(C)CC2CCOCC2)n(Cc2ccccc2)c1C(F)(F)F [SC-21, 1-Benzyl-3-(4-chlorophenyl)-N,4-dimethyl-N-(tetrahydro-pyran-4-yl-methyl)-5-(trifluoromethyl)-1H-pyrrole-2-carboxylic acid amide]	> 95
CN(CC1CCC[C@@H]1O)C(=O)c1c(-c2ccc(Cl)cc2)cc(C(F)(F)F)n1Cc1ccccc1 (stereo partly drawn) [SC-199, 1-Benzyl-3-(4-chlorophenyl)-N-[[(2S)-2-hydroxy-cyclopentyl]-methyl]-N-methyl-5-(trifluoromethyl)-1H-pyrrole-2-carboxylic acid amide]	> 95
Cc1c(-c2ccc(Cl)cc2)c(C(=O)NC2CCOCC2)n(Cc2ccccc2)c1C(F)(F)F [SC-10, 1-Benzyl-3-(4-chlorophenyl)-4-methyl-N-tetrahydro-pyran-4-yl-5-(trifluoromethyl)-1H-pyrrole-2-carboxylic acid amide]	75 to 95
CC1(C)CN(C(=O)c2c(-c3ccc(Cl)cc3)cc(C(F)(F)F)n2Cc2ccccc2)CCO1 [SC-75, [1-Benzyl-3-(4-chlorophenyl)-5-(trifluoromethyl)-1H-pyrrol-2-yl]-(2,2-dimethyl-morpholin-4-yl)-methanone]	75 to 95
Cc1c(-c2ccc(Cl)cc2F)c(C(=O)N(CCS(C)(=O)=O)C(C)C)n(Cc2ccccc2)c1C(F)(F)F [SC-169, 1-Benzyl-3-(4-chloro-2-fluoro-phenyl)-N-isopropyl-4-methyl-N-(2-methylsulfonyl-ethyl)-5-(trifluoromethyl)-1H-pyrrole-2-carboxylic acid amide]	75 to 95
Cc1c(-c2ccc(Cl)cc2)c(C(=O)N(C)CCNS(C)(=O)=O)n(Cc2ccccc2)c1C(F)(F)F [SC-38, 1-Benzyl-3-(4-chlorophenyl)-N-[2-(methanesulfonamido)-ethyl]-N,4-dimethyl-5-(trifluoromethyl)-1H-pyrrole-2-carboxylic acid amide]	> 95
Cc1c(-c2ccc(C(F)(F)F)cc2)c(C(=O)N(C)CC(C)(C)CO)n(Cc2ccccc2)c1C(F)(F)F [SC-227, 1-Benzyl-N-(3-hydroxy-2,2-dimethyl-propyl)-N,4-dimethyl-5-(trifluoromethyl)-3-[4-(trifluoromethyl)-phenyl]-1H-pyrrole-2-carboxylic acid amide]	75 to 95
Cc1c(-c2ccc(Cl)cc2)c(C(=O)N2CC(F)(F)C2)n(-c2cccc(Cl)c2)c1C(F)(F)F [SC-33, [1-(3-Chlorophenyl)-3-(4-chlorophenyl)-4-methyl-5-(trifluoromethyl)-1H-pyrrol-2-yl]-(3,3-difluoro-azetidin-1-yl)-methanone]	75 to 95
Cc1c(-c2ccc(C(F)(F)F)cc2)c(C(=O)N(C)CC(C)(C)C)n(Cc2ccccc2)c1C(F)(F)F [SC-233, 1-Benzyl-N-(2,2-dimethyl-propyl)-N,4-dimethyl-5-(trifluoromethyl)-3-[4-(trifluoromethyl)-phenyl]-1H-pyrrole-2-carboxylic acid amide]	30 to 40
Cc1c(-c2ccc(Cl)cc2)c(C(=O)N(C)C2CCS(=O)(=O)C2)n(Cc2ccccc2)c1C(F)(F)F (stereo not shown) [SC-63, 1-Benzyl-3-(4-chlorophenyl)-N-(1,1-dioxo-thiolan-3-yl)-N,4-dimethyl-5-(trifluoromethyl)-1H-pyrrole-2-carboxylic acid amide]	> 95
Cc1c(-c2ccc(Cl)cc2)c(C(=O)N(C)CC2(CO)CC2)n(Cc2ccccc2)c1C(F)(F)F [SC-115, 1-Benzyl-3-(4-chlorophenyl)-N-[[1-(hydroxymethyl)-cyclopropyl]-methyl]-N,4-dimethyl-5-(trifluoromethyl)-1H-pyrrole-2-carboxylic acid amide]	> 95
CCN(CCS(C)(=O)=O)C(=O)c1c(-c2ccc(Cl)cc2)c(C)c(C(F)(F)F)n1Cc1ccccc1 [SC-128, 1-Benzyl-3-(4-chlorophenyl)-N-ethyl-4-methyl-N-(2-methylsulfonyl-ethyl)-5-(trifluoromethyl)-1H-pyrrole-2-carboxylic acid amide]	> 95
CN(CC(C)(C)C)C(=O)c1c(-c2ccc(Cl)cc2)cc(C(F)(F)F)n1Cc1cccc(Cl)c1 [SC-71, 3-(4-Chlorophenyl)-1-[(3-chlorophenyl)-methyl]-N-(2,2-dimethyl-propyl)-N-methyl-5-(trifluoromethyl)-1H-pyrrole-2-carboxylic acid amide]	75 to 95
Cc1c(-c2ccc(Cl)cc2)c(C(=O)N(C)CC(C)(C)C)n(Cc2ccccc2)c1C(F)(F)F [SC-04, 1-Benzyl-3-(4-chlorophenyl)-N-(2,2-dimethyl-propyl)-N,4-dimethyl-5-(trifluoromethyl)-1 H-pyrrole-2-carboxylic acid amide]	75 to 95
Cc1c(-c2ccc(Cl)cc2)c(C(=O)N(C)Cc2ccncn2)n(Cc2ccccc2)c1C(F)(F)F [SC-144, 1-Benzyl-3-(4-chlorophenyl)-N,4-dimethyl-N-(pyrimidin-4-yl-methyl)-5-(trifluoromethyl)-1H-pyrrole-2-carboxylic acid amide]	> 95
Cc1c(-c2ccc(F)cc2)c(C(=O)N2CCOCC2)n(Cc2ccccc2)c1C(F)(F)F [SC-101, [1-Benzyl-3-(4-fluorophenyl)-4-methyl-5-(trifluoromethyl)-1H-pyrrol-2-yl]-morpholin-4-yl-methanone]	> 95
Cc1c(-c2ccc(Cl)cc2F)c(C(=O)NC2CC2)n(Cc2ccccc2)c1C(F)(F)F [SC-172, 1-Benzyl-3-(4-chloro-2-fluoro-phenyl)-N-cyclopropyl-4-methyl-5-(trifluoromethyl)-1H-pyrrole-2-carboxylic acid amide]	75 to 95
Cc1c(-c2ccc(OC(F)(F)F)cc2)c(C(=O)N(C)C2CCOCC2)n(Cc2ccccc2)c1C(F)(F)F [SC-237, 1-Benzyl-N,4-dimethyl-N-tetrahydro-pyran-4-yl-5-(trifluoromethyl)-3-[4-(trifluoromethyloxy)-phenyl]-1H-pyrrole-2-carboxylic acid amide]	75 to 95
Cc1c(-c2ccc(Cl)c(F)c2)c(C(=O)N(C)CC(C)(C)CO)n(Cc2ccccc2)c1C(F)(F)F [SC-243, 1-Benzyl-3-(4-chloro-3-fluoro-phenyl)-N-(3-hydroxy-2,2-dimethyl-propyl)-N,4-dimethyl-5-(trifluoromethyl)-1H-pyrrole-2-carboxylic acid amide]	> 95
Cc1c(-c2ccc(Cl)c(F)c2)c(C(=O)N(C)CC(C)(C)C)n(Cc2ccccc2)c1C(F)(F)F [SC-250, 1-Benzyl-3-(4-chloro-3-fluoro-phenyl)-N-(2,2-dimethyl-propyl)-N,4-dimethyl-5-(trifluoromethyl)-1H-pyrrole-2-carboxylic acid amide]	40 to 75
CC(=O)NCCN(C)C(=O)c1c(-c2ccc(Cl)cc2)c(C)c(C(F)(F)F)n1Cc1ccccc1 [SC-37, N-(2-Acetylamino-ethyl)-1-benzyl-3-(4-chlorophenyl)-N,4-dimethyl-5-(trifluoromethyl)-1H-pyrrole-2-carboxylic acid amide]	> 95
